Where a SMILES comes first, the peptide text is derived from it. Bridges are numbered along the chain shown (N, C = ends).
What was measured:
[1] = Half-life and pharmacokinetics in SD rats after caudal vein administration (HPLC); type: in vivo
Method: Half-life of peptides in SD rats was determined via HPLC according to the method described in [31]. The SD rats were maintained at constant room temperature [(25 ± 2) °C] with free access to food and water for 48 h. Each SD rat was weighed to an accuracy of 0.10 g, numbered, and grouped randomly, with 6 rats in each group. LR18 and C-LR18 were injected into SD rats via tail vein at a dose of 5 mg/kg body weight. A total of 200 μL of blood was collected from the orbital venous plexus at different time points of 0, 0.5, 0.8, 1.0, 1.5, 2.5, 3.5, 5, 10, 30, and 60 min, and placed into a centrifuge tube containing 0.5% heparin sodium. After centrifugation at 3000 r/min for 15 min, the supernatant was absorbed into a new centrifuge tube, and then acetonitrile containing 0.1% TFA was added at 1/1 volume. Vortexing for 30 s, the samples were centrifuged at 14,000 r/min for 20 min, the supernatant was aspirated and sterilized using a 0.22 μm sterilization filter, and 30 μL of the sample was used for HPLC determination. The pharmacokinetic parameters were calculated using Phoenix Winnonlin 7.0 software and analyzed with non-atrioventricular model. Drug–time curves were plotted using Graphpad Prim, and Mean ± SD was used to interpolate each point during drug–time curve fitting.

E. coli ATCC25922 = assay: Bactericidal kinetics assay; type: cell-based; conditions: 1 × MIC and 2 × MIC, 1 × 10^6 CFU/mL, 37 °C, dose-dependent, Figure 1f
Method: Bactericidal kinetics assay was performed according to the method outlined by Zhang et al.. […] The mixed solutions were incubated in a shaker at 37 °C. A total of 100 μL of the above mixed solution was absorbed every 20 min and diluted with sterile MH liquid medium, and then 50 μL of bacterial solution was aspirated and evenly coated on the solid MH plate. After incubation at 37 °C for 16–18 h, the bacteria colonies on the plate were counted. The bactericidal kinetics curves of LR18 and C-LR18 against E. coli ATCC25922 were plotted. The experiment was repeated three times.

E. coli Y1 [2] = assay: Therapeutic experiment, survival of E. coli-infected mice; type: in vivo, KM mice; conditions: within 72 h, 10 mice per group
Method: The mice (female, 18–21 g) were randomly divided into 6 groups, with PBS dilution as the control group. A total of 1–5 groups were injected intraperitoneally with 0.5 mL of E. coli solution containing […] CFU/mL, respectively. After inoculation, the mice were observed continuously for 5 days, and the mortality rate was recorded. The minimum dose (LD 100) at which all mice die within 5 days was used as the optimal dose for the bacterial attack in this experiment.
In order to further evaluate the therapeutic potential of antimicrobial peptide C-LR18, a mouse model infected with E. coli was constructed in this study. The Km mice (female, 18–21 g) were maintained at constant room temperature [(25 ± 2) °C] with free access to food and water for 48 h. […] A total of 0.5 mL of E. coli Y1 suspension (10^9 CFU/m L) was intraperitoneally injected into each group of mice. One hour after challenge, different doses of C-LR18 (2.5 mg/kg, 5 mg/kg, and 7.5 mg/kg) and polymyxin B (5 mg/kg) were intraperitoneally injected into mice. The group injected with the same dose of physiological water was the control group.

E. coli Y1 [3] = assay: Bacterial colony number in mouse abdominal cavity; type: in vivo; conditions: 24 h after treatment, three mice, control group 1 × 10^9 CFU/mL
Method: One hour after the mice were intraperitoneally injected with 0.5 mL of E. coli Y1 suspension (10^9 CFU/mL), different doses of C-LR18 (2.5 mg/kg, 5 mg/kg, and 7.5 mg/kg) were injected into the mice through the tail vein, respectively. After 24 h, 2 mL sterile saline was injected into the abdominal cavity of the mice, and the mice were killed via cervical dislocation. The peritoneal cavity of mice was opened, the peritoneal fluid was absorbed, and the peritoneal fluid was diluted with sterilized MH medium in a double ratio. After coating the plate, the peritoneal fluid was cultured at 37 °C for 16–20 h, and the colony count was performed. Three mice were taken from each group.

KM mice = assay: Acute toxicity (LD50) in mice, tail vein; type: in vivo; conditions: for Number of Animal Deaths (r) / Survival Rate (q): 10 mice
Method: The health status of mice was observed, and the mortality data of 5 groups of mice were recorded. The LD50 and 95% confidence limit of C-LR18 for mice were calculated according to the following formula:LD50 = log − 1[Xm − i(ΣP − 0.5)](3) (4) SX50=i∑pq/n 95% Confidence limits of LD50 = log − 1(log − 1LD50 ± 1.96SX50)(5)
Xm: dose pair value of maximum dose group, i: the difference between the dose pairs of two adjacent groups, P: animal mortality in each group, ΣP: the sum of the mortality of each group of animals, n: number of animals per group, q: survival rate per dose group, […].

## CC(C)C[C@@H]1NC(=O)[C@H](CCCNC(=N)N)NC(=O)[C@H](CCCNC(=N)N)NC(=O)[C@H](CC(C)C)NC(=O)[C@H](CC(C)C)NC(=O)[C@H](CCCNC(=N)N)NC(=O)[C@H](CC(C)C)NC(=O)[C@@H]2CCCN2C(=O)[C@H](CCCNC(=N)N)NC(=O)[C@H](CCCNC(=N)N)NC(=O)[C@@H]2CCCN2C(=O)[C@H](CC(C)C)NC(=O)[C@H](CCCNC(=N)N)NC(=O)[C@H](CC(C)C)NC(=O)[C@H](CC(C)C)NC(=O)[C@H](CCCNC(=N)N)NC(=O)[C@H](CCCNC(=N)N)NC(=O)[C@H](CC(C)C)NC(=O)[C@@H](N)CSSC[C@@H](C(=O)O)NC1=O [C-LR18] (H-CLRRLLRLPRRPLRLLRRLC-OH; disulfide 1-20; N-terminus and C-terminus assumed)
[1]; SD rats iv
  half-life in rats relative to LR18: 4.66 times
  prolongation of half-life in rats versus LR18: 10 min
[1]; SD rats, tail vein, 5 mg/kg, HPLC, n = 3
  Cmax: 254.23 ± 6.30 µg/mL
[1]; SD rats, tail vein, 5 mg/kg, non-compartmental, HPLC, n = 3 (method: 6 rats per group)
  AUC0-t: 3376.13 ± 37.72 µg·min/mL
[1]; rat, plasma, iv, SD rats, tail vein, 5 mg/kg, HPLC, n = 3, read-out: MRT0-t (converted)
  MRT: 13.5 min
[1]; rat, plasma, iv, SD rats, tail vein, 5 mg/kg, HPLC, n = 3, read-out: T1/2β (terminal elimination half-life)
  half-life: 12.7 ± 0.79 min
E. coli ATCC25922
  time to complete killing of E. coli ATCC25922: ≤ 100 min
E. coli Y1 [2]; 2.5 mg/kg ip 1 h after ip 0.5 mL E. coli Y1 10^9 CFU/mL
  survival rate of mice: 20%
E. coli Y1 [2]; 5 mg/kg ip 1 h after ip 0.5 mL E. coli Y1 10^9 CFU/mL
  survival rate of mice: 40%
E. coli Y1 [2]; 7.5 mg/kg ip 1 h after ip 0.5 mL E. coli Y1 10^9 CFU/mL
  survival rate of mice: 60%
E. coli Y1 [3]; 2.5 mg/kg
  number of colonies in mouse abdominal cavity: 10^7 CFU/mL
E. coli Y1 [3]; 5.0 mg/kg
  number of colonies in mouse abdominal cavity: 10^6 CFU/mL
E. coli Y1 [3]; 7.5 mg/kg
  number of colonies in mouse abdominal cavity: 10^4 CFU/mL
KM mice; 36 mg/kg tail vein
  Number of Animal Deaths (r): 0
  Survival Rate (q): 1
KM mice; 44 mg/kg tail vein
  Number of Animal Deaths (r): 2
  Survival Rate (q): 0.8
KM mice; 53 mg/kg tail vein
  Number of Animal Deaths (r): 5
  Survival Rate (q): 0.5
KM mice; 64 mg/kg tail vein
  Number of Animal Deaths (r): 7
  Survival Rate (q): 0.3
KM mice; 77 mg/kg tail vein
  Number of Animal Deaths (r): 10
  Survival Rate (q): 0
KM mice; Kunming mice, tail vein
  95% confidence limit of LD50: 28.0 to 50.1 mg/kg
